Laboratory results reported in publication PMC4912613, “A broad analysis of resistance development in the malaria parasite” (Nature Communications, 2016).

Tests used:
[1] = tested on: GNF156R (PfCARL L830V, S1076I and M81I, parent Dd2); experiment: Cross-resistance EC50 assay, GNF156R; format: cell-based; settings: Plasmodium falciparum, SYBR green 72 hour assay, asynchronized parasites, 96-well or 1536-well format
From the text: (§1) To evaluate potential overlapping activity against known antimalarial drug targets, we performed dose-response studies with each compound against our assembled set of drug-resistant lines and their corresponding parents, in an asexual blood stage proliferation assay (Table 1). Comparisons were made to the drug-sensitive strain 3D7 when a parent was unavailable (TM90C2A, W2 and Dd2). As laboratories conducted EC50 assays with different strains and protocols, all comparisons were made between assays from the same laboratory and under the same assay conditions. Compounds displaying >5-fold EC50 shifts relative to the parent or sensitive strain were flagged as having potentially non-novel targets. Average fold shifts per strain ranged from 0.82 to 2.34, with a median of 1.23 indicating there was not common resistance to any one resistant clone. No resistance patterns were observed when classifying the compounds based on chemical structure, but this was not surprising given the diversity of compounds chosen. On the other hand, given that these confirmed compounds were derived from larger unconfirmed hit lists to which some filtration criteria may have been applied (for example, elimination of obvious dihydrofolate reductase inhibitors[32]), some[10][11][12][13] pre-existing bias may exist in the set. […]
(§2) Alternatively, a SYBR Green-based proliferation approach was used for the 72-h assay, as previously described. Briefly, a culture of either synchronized or asynchronous parasitized RBCs (0.3% parasitemia and 4% haematocrit) in screening medium (identical to supplemented medium above except no serum was added) was exposed to serial drug dilutions. Plates were incubated at 37 °C and gassed with 93% N2, 4% CO2 and 3% O2 for 72 h. Following incubation, 10 × SYBR Green I (Invitrogen; supplied in 10,000 × concentration) in lysis buffer ([…], 5 mM EDTA, 0.16% Saponin wt per vol and 1.6% Triton X vol per vol) was added to the wells and the plates were incubated overnight at room temperature before plate reading. EC50 assays were repeated three times, taking the average EC50 value from each assay set, and removing any outliers using a single iteration of Grubbs' test, eliminating values with z-scores above the critical z-value (α=0.05). The raw EC50 values for synchronized parasites assayed in a 384-well format are listed in Supplementary Data 4. The raw EC50 values for asynchronous parasites assayed in a 96 or 1536-well format are listed in Supplementary Data 5.
(§3) EC50 values for each strain were compared with those of the corresponding parent strain to determine fold-shift changes and identify resistance. To minimize the cause variance between assays, all comparisons were conducted between strains assayed under identical conditions. A one-way ANOVA followed by a Dunnet's post-test was conducted in GraphPad Prism to identify significant changes between the parent and resistant strain.

PfCRT-Q352R (parent Dd2) = experiment: Cross-resistance EC50 assay, PfCRT-Q352R; format: cell-based; settings: Plasmodium falciparum, DD2, 72 h, read-out: PfCRT:Q352R (Dd2 Parent) Average EC50
From the text: as §1, §2, §3

[2] = tested on: P. falciparum 3D7, Dd2, Dd2Δexo; experiment: In vitro evolution of compound-resistant lines (selection); format: cell-based, Plasmodium falciparum; settings: for Time Length to Obtain Mutants: in vitro selection; for # of Resistant Strains Generated: resistant cultures out of three independent cultures; for EC50 fold shifts observed: selected parasites vs selection parent
From the text: While we found an overall lack of pre-existing resistance, analysing the onset of resistance was critical, as compounds resulting in rapid resistance are not ideal for clinical development. We therefore sought to create drug-resistant parasites using a variety of different selection methods. We implemented either a high-dose method or a ramp-up/pulse method for our in vitro selections. Two of the 50 compounds—MMV028895 and MMV665824—were removed from the selection study during experimentation. […] Out of the remaining 48 compounds, resistant parasites were obtained for 23 (Supplementary Data 1). As each selection was performed in triplicate with three independent cultures, we succeeded in generating a total of 66 resistant cultures. Parasites resistant to MMV026596 were not obtained despite 100 days of selection, but the cultures acquired hypersensitivity to mefloquine with a 10-fold reduction in EC50 compared with its parental line, 3D7. For the remaining 24 compounds, acquisition of resistant parasites was unsuccessful despite numerous attempts over an extensive period of time.
Based on the compound speed of action and lab specialty, selections were conducted using a high-pressure intermittent selection method, a step-wise selection method, or a constant selection method. For high-pressure selections, ∼1–2 × 10^9 parasites were treated at a concentration of 3–10 × EC50 until parasites could not be seen by microscopy (4–10 days). Following treatment, compound pressure was removed and cultures were allowed to recover. Once healthy parasites were seen and parasitemia reached ∼2%, compound pressure was reinstated. For step-wise selections, ∼1 × 10^8 parasites were treated at a starting concentration resulting in a reduced growth rate of 50%. Cultures were examined daily by microscopy, increasing compound concentration in increments of 5–10% as needed to maintain a 50% reduced growth rate. Selections were carried out until cultures achieved a reproducible EC50 fold shift of >3 × . Finally, constant selections were conducted in a similar manner to the high-pressure intermittent method with the exception that compound pressure was never removed. Following successful selection, cultures were cloned out using a limiting dilution method as previously described. Selections were terminated after 200 days if resistance could not be obtained.

[3] = tested on: DHODH (E182D, parent 3D7); experiment: Cross-resistance EC50 assay, DHODH; format: cell-based; settings: Plasmodium falciparum; SYBR green 72 hour assay; synchronized parasites; 384-well format; strain DHODH (3D7 parent)
From the text: as §1, §2, §3

| SMILES | EC50 [1] [µM] | EC50 (PfCRT-Q352R (parent Dd2)) [nM] | Time Length to Obtain Mutants [2] | # of Resistant Strains Generated [2] | EC50 [3] [nM] | EC50 fold shifts observed [2] |
| --- | --- | --- | --- | --- | --- | --- |
| Cc1c(C)n(Cc2ccc(F)cc2)c2ccc(C(=O)NCc3ccco3)cc12 [MMV008149] | 0.798 | 139 | SHORT (0-50 days) | 3/3 | 401 |  |
| Nc1ccc(-c2nc3cc(Cc4ccc5[nH]c(-c6ccc(N)cc6)nc5c4)ccc3[nH]2)cc1 [MMV665943] | 0.399 | 407 | SHORT (0-50 days) | 0/3 | 335 | no shift |
| COc1ccc(C(=O)C2CC2c2ccc(Cl)cc2)cc1 (centres unmarked) [MMV665924] | 1.17 | 1400 | SHORT (0-50 days) | 3/3 | 927 | 3-5x |
| c1cncc(-c2cc(N3CCC(CN4CCOCC4)CC3)nc(-c3ccncc3)n2)c1 [MMV668399] | 0.827 | 70 | LONG (> 125 days) | 3/3 | 80 | 2-4x |
| Cc1ccc(S(=O)(=O)n2cc(-c3ccnc(N)c3)c3cc(Br)cnc32)cc1 [MMV024114] | 2.9 | 499 | LONG (> 125 days) | 3/3 | 395 | 2x |
| Cl.c1ccc2c(NCCCCCCNc3c4c(nc5ccccc35)CCCC4)c3c(nc2c1)CCCC3 [MMV019555] | 0.22 | 166 | LONG (> 125 days) | 0/3 | 56 | no shift |
| CCCN(CCC)CC(O)COc1ccccc1C(=O)Nc1ccccc1 (centres unmarked) [MMV006455] | 0.083 | 1220 | LONG (> 125 days) | 0/3 | 2830 | no shift |
| Cc1ccc(Cn2c(N3CCC(C(=O)NCc4cccs4)CC3)nc3ccccc32)cc1 [MMV007564] | 1.62 | 430 | SHORT (0-50 days) | 3/3 | 631 | 7-12x |
| Nc1ncc(-c2cn[nH]c2)cc1-c1nc2ccc(F)cc2[nH]1 [MMV023367] | 2.54 | 421 | LONG (> 125 days) | 3/3 | 414 | 3x |
| O=C(NC(c1ccccc1)c1ccc2cccnc2c1O)c1ccccc1 (centres unmarked) [MMV666080] | 0.822 | 545 | LONG (> 125 days) | 0/3 | 779 | no shift |
| CCCOCc1cc(CN2CCN(c3cccc(Cl)c3)CC2)c(O)c2ncccc12 [MMV000787] | 1.63 | 699 | LONG (> 125 days) | 0/3 | 467 | no shift |
| Cc1ccc(Oc2ncccc2C(=O)Cc2cccc3cccnc23)c(C)c1 [MMV020746] | 3.38 | 142 | SHORT (0-50 days) | 3/3 | 122 | 6-19x |
| COC(=O)c1ccc(C2C3=C(O)CC(c4ccc(F)cc4)CC3=Nc3ccccc3N2C(=O)c2ccccc2)cc1 (centres unmarked) [MMV011438] | 0.842 | 174 | LONG (> 125 days) | 0/3 | 556 | no shift |
| CN(C)S(=O)(=O)c1cc(-c2ccc3nccc(-c4cccc(S(N)(=O)=O)c4)c3c2)cnc1N [MMV024038] | 0.861 | 107 | SHORT (0-50 days) | 0/3 | 216 | no shift |
| COc1ccc(-c2nc(NC(=O)Cc3ccc4c(c3)OCCO4)sc2C)cc1 [MMV019719] | 0.347 | 244 | MODERATE (50-125 days) | 3/3 | 180 | 3x |
| COCCNCC(O)Cn1c2ccc(Cl)cc2c2cc(Cl)ccc21 (centres unmarked) [MMV019017] | 0.336 | 582 | LONG (> 125 days) | 0/3 | 1040 | no shift |
| CCOc1cc2c(cc1OCC)C(c1cc(Cl)ccc1O)NCC2 (centres unmarked) [MMV000478] | 0.764 | 785 | LONG (> 125 days) | 0/3 | 1450 | no shift |
| COc1cc(-c2nc(-c3ccccc3)c(-c3ccccc3)[nH]2)cc(OC)c1O [MMV020750] | 0.663 | 725 | LONG (> 125 days) | 0/3 | 509 | no shift |
| OC(CNC1CCCCC1)Cn1c2ccccc2c2ccccc21 (centres unmarked) [MMV009063] | 0.095 | 315 | LONG (> 125 days) | 3/3 | 715 | 1.9-3.4x |
| CCN(CC)S(=O)(=O)c1ccc(-c2csc(Nc3ccc(C)c(C)c3)n2)cc1 [MMV009108] | 1.5 | 404 | SHORT (0-50 days) | 3/3 | 973 | 9x |
| CC(C)(C)OC(=O)N1CCN(c2ccccc2NC(=O)c2cccc(C(F)(F)F)c2Oc2ccc(F)cc2)CC1 [MMV030666] | 0.364 | 315 | LONG (> 125 days) | 0/3 | 392 | no shift |
| O=C(Nc1ccsc1C(=O)NC1CCCCC1)c1ccc(F)cc1 [MMV665939] | 1.28 | 1140 | MODERATE (50-125 days) | 3/3 | 771 | 4-6x |
| O=C(Nc1ccccc1O)c1ccc(Oc2cccc(C(=O)Nc3ccccc3O)c2)cc1 [MMV665888] | 0.67 | 683 | LONG (> 125 days) | 0/3 | 1020 | no shift |
